The target in the experiment is T1, Human cRaf1 (Homo sapiens, UniProt P04049).
T1 construct: poly-histidine (C); made in house
T1 sequence (P04049 whole entry): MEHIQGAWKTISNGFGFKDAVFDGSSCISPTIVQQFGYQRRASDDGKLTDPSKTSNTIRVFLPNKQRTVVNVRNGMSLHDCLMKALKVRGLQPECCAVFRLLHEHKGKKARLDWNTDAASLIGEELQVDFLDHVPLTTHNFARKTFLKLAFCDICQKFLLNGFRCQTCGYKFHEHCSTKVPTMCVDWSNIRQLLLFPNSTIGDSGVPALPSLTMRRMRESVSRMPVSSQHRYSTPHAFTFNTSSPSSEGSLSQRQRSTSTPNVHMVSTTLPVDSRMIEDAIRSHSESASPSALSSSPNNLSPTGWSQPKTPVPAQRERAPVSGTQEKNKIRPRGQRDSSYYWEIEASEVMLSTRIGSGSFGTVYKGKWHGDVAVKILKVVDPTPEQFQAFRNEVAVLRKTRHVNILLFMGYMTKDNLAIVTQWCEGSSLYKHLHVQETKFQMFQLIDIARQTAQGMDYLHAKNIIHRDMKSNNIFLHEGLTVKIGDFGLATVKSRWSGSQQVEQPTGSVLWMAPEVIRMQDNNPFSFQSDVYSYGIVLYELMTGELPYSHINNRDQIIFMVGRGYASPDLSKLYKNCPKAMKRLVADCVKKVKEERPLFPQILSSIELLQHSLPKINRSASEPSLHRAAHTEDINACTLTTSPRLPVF
Description: Raf kinase assay (cRaf1 assay / Raf/MEK cascade assay). The format is biochemical. The note with it: Table 3; read-out: Raf Kinase activity. On the procedure:
The potency of cRaf1 dependent kinase activity was measured using one of two assay formats. The first measured cRaf1 catalyzed phosphorylation of MEK1, the natural substrate for cRaf1. This assay is referred to as the cRaf1 assay. The second measured the ability of cRaf1 to phosphorylate and activate MEK1. This assay is referred to as the Raf/MEK cascade assay.
Human cRaf1 tagged with poly histidine at the carboxyterminus was expressed in a baculovirus expression system and purfied by Ni chelate affinity chromatography. Human MEK1 was expressed in E. coli as a fusion protein with Glutathione-S-transferase, and purified by glutathione sepharose affinity chromatography. […] Reactions contained cRaf1 (20 nM), MEK1 (100-500 nM), [γ-^32 P]ATP ([…]), Mg^2+ (10 mM), MOPS (50 mM, pH 7.5). Reactions were incubated at room temperature for periods of time ranging from 20-120 minutes. Inhibitors were diluted in 100% DMSO prior to addition to the assay. Reactions were terminated with an equal volume of 0.5% phosphoric acid. MEK1 phosphorylation was detected by scintillation counting following collection of protein onto phosphocellulose filters.
Human cRaf1 and MEK1 were purified as described above. A peptide substrate phosphorylated by MEK1 was used as the final phosphoryl group acceptor. […] Assay conditions were the same as those described above except for the following modifications. Reactions contained cRaf1 (1-5 nM), MEK1 (60 nM), and peptide ([…]).
Take `CCN(CC)S(=O)(=O)c1ccc2c(c1)C(=Cc1cc(Br)c(O)c(Br)c1)C(=O)N2` [Example 34, 3-(3,5-Dibromo-4-hydroxy-benzylidene)-2-oxo-2,3 dihydro-1H-indole-5-sulfonic acid N,N-diethylamide]: the IC50 is less than 1 µM.
The figure for `O=C1Nc2ccc(S(=O)(=O)N3CCCC3)cc2C1=Cc1cc(Br)c(O)c(Br)c1` [Example 35, 3-(3,5-Dibromo-4-hydroxy-benzylidene)-5-(pyrrolidine-1-sulfonyl)-1,3-dihydro-indol-2-one] is less than 1 µM; for `CN(C)CCN(C)S(=O)(=O)c1ccc2c(c1)C(=Cc1cc(Br)c(O)c(Br)c1)C(=O)N2` [Example 36, 3-(3,5-Dibromo-4-hydroxy-benzylidene)-2-oxo-2,3-dihydro-1H-indol-5-sulfonic acid (N-2-dimethylamino-ethyl)-N-methyl-amide] it is less than 1 µM; for `O=C1Nc2ccc(C(=O)c3ccno3)cc2C1=Cc1cc(Br)c(O)c(Br)c1` [Example 37, 3-(3,5-Dibromo-4-hydroxy-benzylidene)-5-(isoxazole-5-carbonyl)-1,3-dihydro-indol-2-one] it is less than 1 µM.
Next, `O=C1Nc2ccc(Cl)cc2C1=Cc1cc(Br)c(O)c(Br)c1` [Example 38, 5-Chloro-3-(3,5-dibromo-4-hydroxy-benzylidene)-1,3-dihydro-indol-2-one]: less than 1 µM; `O=C1Nc2ccc(Cl)cc2C1=Cc1cc(Cl)c(O)c(Cl)c1` [Example 39, 5-Chloro-3-(3,5-dichloro-4-hydroxy-benzylidene)-1,3-dihydro-indol-2-one]: less than 1 µM.
Consider `O=C1Nc2ccc(OC(F)(F)F)cc2C1=Cc1cc(Br)c(O)c(Br)c1` [Example 40, 3-(3,5-Dibromo-4-hydroxy-benzylidene)-5-trifluoromethoxy-1,3-dihydro-indol-2-one], for which the IC50 was less than 1 µM.
Take `O=C1Nc2ccc(Br)cc2C1=Cc1cc(Cl)c(O)c(Cl)c1` [Example 41, 5-Bromo-3-(3,5-dichloro-4-hydroxy-benzylidene)-1,3-dihydro-indol-2-one]: the IC50 is less than 1 µM.
Regarding `CCOc1cc(C=C2C(=O)Nc3ccc(I)cc32)cc(Br)c1O` [Example 42, 3-(3-Bromo-5-ethoxy-4-hydroxy-benzylidene)-5-iodo-1,3-dihydro-indol-2-one], the IC50 is less than 1 µM.
The figure for `COc1cc(C=C2C(=O)Nc3ccc(I)cc32)cc(Br)c1O` [Example 43, 3-(3-Bromo-4-hydroxy-5-methoxy-benzylidene)-5-iodo-1,3-dihydro-indol-2-one] is less than 1 µM; for `O=C1Nc2ccc(Br)cc2C1=Cc1cc(I)c(O)c(I)c1` [Example 44, 5-Bromo-3-(3,5-diiodo-4-hydroxy-benzylidene)-1,3-dihydro-indol-2-one] it is less than 1 µM.
Take `O=C1Nc2ccc(OC(F)(F)F)cc2C1=Cc1cc(I)c(O)c(I)c1` [Example 45, 3-(3,5-diiodo-4-Hydroxy-benzylidene)-5-trifluoromethoxy-1,3-dihydro-indol-2-one]: the IC50 is less than 1 µM.
The figure for `COc1cc(C=C2C(=O)Nc3ccccc32)cc(Br)c1O` [Example 46, 3-(3-Bromo-4-hydroxy-5-methoxy-benzylidene)-1,3-dihydro-indol-2-one] is less than 1 µM; for `O=C1Nc2ccccc2C1=Cc1cc([N+](=O)[O-])c(O)c([N+](=O)[O-])c1` [Example 47, 3-(3,5-dinitro-4-Hydroxy-benzylidene)-1,3-dihydro-indol-2-one] it is 1 to 10 µM.
`O=C1Nc2ccccc2C1=Cc1cc(Cl)c(O)c(Cl)c1` [Example 48, 3-(3,5-dichloro-4-Hydroxy-benzylidene)-1,3-dihydro-indol-2-one]: the IC50 lay in the range of 1 to 10 µM.
The figure for `COc1cc(C=C2C(=O)Nc3ccccc32)cc(Cl)c1O` [Example 49, 3-(3-Chloro-4-hydroxy-5-methoxy-benzylidene)-1,3-dihydro-indol-2-one] is 1 to 10 µM.
`O=C1Nc2ccccc2C1=Cc1cc(I)c(O)c(I)c1` [Example 50, 3-(3,5-diiodo-4-Hydroxy-benzylidene)-1,3-dihydro-indol-2-one]: the IC50 is 1 to 10 µM.
Turning to `COc1cc(C=C2C(=O)Nc3ccc(Cl)cc32)cc(Br)c1O` [Example 51, 3-(3-Bromo-4-hydroxy-5-methoxy-benzylidene)-5-chloro-1,3-dihydro-indol-2-one], the IC50 is less than 1 µM.
Next, `O=C1Nc2ccc(Cl)cc2C1=Cc1cc([N+](=O)[O-])c(O)c([N+](=O)[O-])c1` [Example 52, 5-Chloro-3-(3,5-dinitro-4-hydroxy-benzylidene)-1,3-dihydro-indol-2-one]: less than 1 µM; `COc1cc(C=C2C(=O)Nc3ccc(Cl)cc32)cc([N+](=O)[O-])c1O` [Example 53, 5-Chloro-3-(4-hydroxy-3-methoxy-5-nitro-benzylidene)-1,3-dihydro-indol-2-one]: less than 1 µM.
Regarding `COc1cc(C=C2C(=O)Nc3ccc(Cl)cc32)cc(Cl)c1O` [Example 54, 5-Chloro-3-(3-chloro-4-hydroxy-5-methoxy-benzylidene)-1,3-dihydro-indol-2-one], the IC50 was less than 1 µM.
For the molecule `O=C1Nc2ccc(Cl)cc2C1=Cc1cc(I)c(O)c(I)c1` [Example 55, 5-Chloro-3-(3,5-diiodo-4-hydroxy-benzylidene)-1,3-dihydro-indol-2-one], the IC50 is less than 1 µM.
Next, `CCOc1cc(C=C2C(=O)Nc3ccc(Br)cc32)cc(Br)c1O` [Example 56, 5-Bromo-3-(3-bromo-5-ethoxy-4-hydroxy-benzylidene)-1,3-dihydro-indol-2-one]: less than 1 µM; `COc1cc(C=C2C(=O)Nc3ccc(Br)cc32)cc(Br)c1O` [Example 57, 5-Bromo-3-(3-bromo-4-hydroxy-5-methoxy-benzylidene)-1,3-dihydro-indol-2-one]: less than 1 µM; `COc1cc(C=C2C(=O)Nc3cc(F)c(F)cc32)cc(Br)c1O` [Example 58, 3-(3-Bromo-4-hydroxy-5-methoxy-benzylidene)-5,6-difluoro-1,3-dihydro-indol-2-one]: less than 1 µM.
On to `CCOc1cc(C=C2C(=O)Nc3ccc(OC(F)(F)F)cc32)cc(Br)c1O` [Example 59, 3-(3-Bromo-5-ethoxy-4-hydroxy-benzylidene)-5-trifluoromethoxy-1,3-dihydro-indol-2-one], for which the IC50 was less than 1 µM.
Next, `O=C1Nc2ccc(OC(F)(F)F)cc2C1=Cc1cc(Cl)c(O)c(Cl)c1` [Example 60, 3-(3,5-Dichloro-4-hydroxy-benzylidene)-5-trifluoromethoxy-1,3-dihydro-indol-2-one]: less than 1 µM.
Take `COc1cc(C=C2C(=O)Nc3ccc(OC(F)(F)F)cc32)cc(Br)c1O` [Example 61, 3-(3-Bromo-4-hydroxy-5-methoxy-benzylidene)-5-trifluoromethoxy-1,3-dihydro-indol-2-one]: the IC50 is less than 1 µM.
Next, `O=C1Nc2c(cc([N+](=O)[O-])cc2[N+](=O)[O-])C1=Cc1cc(Br)c(O)c(Br)c1` [Example 62, 3-(3,5-Dibromo-4-hydroxy-benzylidene)-5,7-dinitro-1,3-dihydro-indol-2-one]: less than 1 µM; `O=C1Nc2ccc([N+](=O)[O-])cc2C1=Cc1cc(Br)c(O)c(Br)c1` [Example 63, 3-(3,5-Dibromo-4-hydroxy-benzylidene)-5-nitro-1,3-dihydro-indol-2-one]: less than 1 µM.
Next, `O=C1Nc2c(I)cccc2C1=Cc1cc(Br)c(O)c(Br)c1` [Example 64, 3-(3,5-Dibromo-4-hydroxy-benzylidene)-7-iodo-1,3-dihydro-indol-2-one]: less than 1 µM.
For `O=C1Nc2ccc([N+](=O)[O-])cc2C1=Cc1cc(Cl)c(O)c(Cl)c1` [Example 65, 3-(3,5-Dichloro-4-hydroxy-benzylidene)-5-nitro-1,3-dihydro-indol-2-one], the IC50 is less than 1 µM.
Turning to `O=C1Nc2c(Br)cccc2C1=Cc1cc(Cl)c(O)c(Cl)c1` [Example 67, 7-Bromo-3-(3,5-dichloro-4-hydroxy-benzylidene)-1,3-dihydro-indol-2-one], the IC50 was less than 1 µM.
In the case of `CCOc1cc(C=C2C(=O)Nc3ccc([N+](=O)[O-])cc32)cc(Br)c1O` [Example 68, 3-(3-Bromo-5-ethoxy-4-hydroxy-benzylidene)-5-nitro-1,3-dihydro-indol-2-one], the IC50 is less than 1 µM.
Next, `CN(CC(N)=O)CC(=O)c1ccc2c(c1)C(=Cc1cc(Br)c(O)c(Br)c1)C(=O)N2` [Example 69, 2-(N-{3-[3-(3,5 Dibromo-4-hydroxy-benzylidene)-2-oxo-2,3-dihydro-1H-indol-5-yl]-2-oxo-ethyl}-N-methyl-amino)-acetamide]: less than 1 µM; `O=C1Nc2ccc(C(=O)CN(CCO)CCCO)cc2C1=Cc1cc(Br)c(O)c(Br)c1` [Example 70, 3-(3,5-Dibromo-4-hydroxy-benzylidene)-5-{2-[(N-2-hydroxy-ethyl)-N-(3-hydroxy-propyl)-amino]-acetyl}-1,3-dihydro-indol-2-one]: less than 1 µM.
The figure for `O=C1Nc2ccc(C(=O)CN3CCSCC3)cc2C1=Cc1cc(Br)c(O)c(Br)c1` [Example 72] is less than 1 µM; for `O=C1Nc2ccc(C(=O)CN3CCOCC3)cc2C1=Cc1cc(Br)c(O)c(Br)c1` [Example 73] it is less than 1 µM.

Values taken from US6268391A, “Benzylidene-1,3-dihydro-indol-2-one derivatives a receptor tyrosine kinase inhibitors, particularly of Raf kinases” (Glaxo Wellcome Inc., priority 1997, dated 2001).
